Source: paper PMC2116318 (The Journal of Cell Biology, 1990)

Legend:
[1] = system: sea urchin egg CaM kinase; experiment: Autocamtide-2 phosphorylation by sea urchin egg extracts; format: biochemical, L. pictus (sea urchin)
rat brain CaM kinase [2] = experiment: Autocamtide-2 phosphorylation by purified rat brain CaM kinase; format: biochemical
[3] = system: 56-kD α-like egg polypeptide (sea urchin egg CaM kinase); experiment: Endogenous phosphorylation in sea urchin egg calmodulin-depleted cytosol; format: biochemical, L. pictus (sea urchin); details: 50 μM peptide in Fig. 5 A
rat brain CaM kinase [4] = experiment: Autophosphorylation of rat brain CaM kinase; format: biochemical; details: 50 μM peptide in Fig. 5 B
[5] = system: L. pictus eggs (nuclear envelope breakdown); experiment: Nuclear envelope breakdown; format: cell-based, L. pictus (sea urchin); details: for Delay of NEB (fraction of eggs) / Duration of delay of NEB / Normal NEB (fraction of eggs): Table I, injected before fertilization
[6] = higher concentrations, over 4% of the cell volume

“CaMK(284-302): control peptide, lacks a critical region of the autoinhibitory domain and therefore does not inhibit CaM kinase (QETVDCLKKFNARRKLKGA; UniProt P11275 284-302, looked up, fragment)” was tested, and the “inhibition of egg kinase (in words)” value ([1]; Discussion summary) was “very weak inhibitor”, the “phosphorylation of autocamtide-2 (effect in words)” value ([1]; calmodulin-depleted cytosol fractions, Fig. 4) was “not affected” and the “inhibitory effects on phosphorylation of autocamtide-2 (in words)” value ([1]; sea urchin egg extracts, concentrations up to 100 μM, Fig. 4) was “no apparent inhibitory effects”. The “inhibition of brain kinase (in words)” value (rat brain CaM kinase [2]; Discussion summary) was “very weak inhibitor”, the “inhibition of rat brain kinase (in words)” value (rat brain CaM kinase [2]; Fig. 4) was “does not inhibit rat brain kinase” and the “endogenous phosphorylation of the α-like subunit (effect in words)” value [3] was “only marginally affected”. For the same substance, the “autophosphorylation of rat brain kinase (effect in words)” value (rat brain CaM kinase [4]) was “only slightly inhibited”, the “effect on NEB (in words)” value ([5]; Discussion summary) was “minimal effects on NEB” and the “Delay of NEB (fraction of eggs)” value ([5]; 1.7-3.5% vol, 60-190 μM) was 1/9. For the same substance, the “Duration of delay of NEB” value ([5]; 1.7-3.5% vol, 60-190 μM) was 9 min, the “Normal NEB (fraction of eggs)” value ([5]; 1.7-3.5% vol, 60-190 μM) was 8/9 and the “Delay of NEB (fraction of eggs)” value ([5]; 4.1-4.8% vol, 220-260 μM) was 3/4. The “Duration of delay of NEB” value ([5]; 4.1-4.8% vol, 220-260 μM) was 11 to 27 min, the “Normal NEB (fraction of eggs)” value ([5]; 4.1-4.8% vol, 220-260 μM) was 1/4 and the “NEB (in words)” value ([5]; control peptide, text on Fig. 6) was “normal NEB”. For the same substance, the “delay of NEB in one case” value ([5]; estimated intracellular concentration 80 μM) was 9 min, the “delay of NEB” value ([5]; higher concentrations, injection volumes over 4% of the cell volume) was 11 to 27 min and the “cases in which NEB proceeded normally” value [5, 6] was “one case”. The “cases with delayed NEB” value [5, 6] was “three of four”.
